This note sets out measurements from patent US20230399342A1 (Incyte Corporation, priority 2022, published 2023).

The target of one test is DGKα (Homo sapiens (Human), UniProt P23743). Put plainly: In vitro DGKα inhibition assay (ADP-Glo). The test is classed as biochemical. To be noted: His-tagged human recombinant enzyme, 0.1 nM DGKα, 50 μM ATP, 20 μM DLG, 90 minute incubation. As for the experimental part:
(§1) The DGKα and DGKξ biochemical reactions were performed using His-tagged human recombinant enzymes (Signal Chem, DGKα, #D21-1OBH; DGKξ, #D30-10H)) and DLG (Dilauroyl-sn-glycerol) lipid substrate (Signal Chem, #D430-59). ADP-Glo assay was performed using ADP-Glog™ kinase Assay kit (Promega, #V9104). The reactions were carried out in assay buffer containing 40 mM Tris, pH 7.5, 0.1% CHAPS, 0.1% Prionex, 40 mM NaCl, 5 mM MgCl2, 1 mM CaCl2, and 1 mM DTT. DGKα reactions contained 0.1 nM DGKα, 50 μM ATP, and 20 μM DLG. And DGKC reactions contained 0.4 nM DGK, 30 μM ATP, and 20 μM DLG.
(§2) For compound inhibition studies, 40 nL test compound in DMSO was added to wells of white polystyrene plates in 384-well (Greiner, #784075) or 1536-well format (Greiner, #782075). Compounds were added with top concentration of 2 mM with 11 point, 3-fold dilution series. Enzyme solution (contains 2×DGK enzyme concentration in Ix assay buffer) was added to the plate in 2 μL/well volume, followed by 2 μL/well of substrate solution (contains 2×concentration of ATP and DLG substrate in Ix assay buffer). Plates were then centrifuged for 1 min at 1200 RPM and sealed or lidded. For 4 μL reaction volume, test compounds were therefore diluted 100× to final top concentration of 20 μM. After 90 minute incubation, reactions were quenched by addition of 2 μL/well Promega ADP-Glo Reagent, followed by centrifugation and lidding. After 60 min incubation, 2 μL/well Promega Kinase Detection Reagent was added, plates centrifuged, and incubated for 30 min. Plates were then read using Luminescence method on BMG PHERAstar FSX plate reader. Percent inhibition was calculated and IC50s were determined using 4-parameter fit in Genedata Screener. Labcyte Echo acoustic dispenser was used for compound addition, and Formulatrix Tempest liquid handler was used for all reagent dispenses.

For a further test, the target named is DGKζ (Homo sapiens (Human), UniProt Q13574). As to the kind of experiment: In vitro DGKζ inhibition assay (ADP-Glo). The test is classed as biochemical. The settings on record: His-tagged human recombinant enzyme, 0.4 nM DGK, 30 μM ATP, 20 μM DLG, 90 minute incubation. As for the experimental part: as §1, §2

Bounds are passed on as bounds.

DGKα, sequence (P23743 whole entry): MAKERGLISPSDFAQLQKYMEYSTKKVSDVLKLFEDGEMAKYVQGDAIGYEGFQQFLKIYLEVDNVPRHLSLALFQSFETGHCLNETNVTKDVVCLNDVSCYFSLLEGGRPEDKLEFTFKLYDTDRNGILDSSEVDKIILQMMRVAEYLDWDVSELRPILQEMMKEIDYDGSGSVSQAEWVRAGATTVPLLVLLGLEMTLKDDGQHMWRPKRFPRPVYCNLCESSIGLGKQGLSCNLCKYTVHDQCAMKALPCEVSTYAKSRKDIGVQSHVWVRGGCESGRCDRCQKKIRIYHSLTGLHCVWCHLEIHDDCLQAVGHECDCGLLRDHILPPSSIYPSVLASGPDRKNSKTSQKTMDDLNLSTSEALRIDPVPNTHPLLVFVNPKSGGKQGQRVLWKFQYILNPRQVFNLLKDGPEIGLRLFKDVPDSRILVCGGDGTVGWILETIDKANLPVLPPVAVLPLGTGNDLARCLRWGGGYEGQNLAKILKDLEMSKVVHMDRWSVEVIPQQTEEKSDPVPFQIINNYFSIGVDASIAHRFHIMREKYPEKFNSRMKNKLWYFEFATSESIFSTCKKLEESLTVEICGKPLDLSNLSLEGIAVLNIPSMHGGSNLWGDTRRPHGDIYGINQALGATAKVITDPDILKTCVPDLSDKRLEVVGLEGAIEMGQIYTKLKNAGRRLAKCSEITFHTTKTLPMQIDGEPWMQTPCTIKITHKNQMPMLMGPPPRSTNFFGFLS
DGKζ, sequence (Q13574 whole entry): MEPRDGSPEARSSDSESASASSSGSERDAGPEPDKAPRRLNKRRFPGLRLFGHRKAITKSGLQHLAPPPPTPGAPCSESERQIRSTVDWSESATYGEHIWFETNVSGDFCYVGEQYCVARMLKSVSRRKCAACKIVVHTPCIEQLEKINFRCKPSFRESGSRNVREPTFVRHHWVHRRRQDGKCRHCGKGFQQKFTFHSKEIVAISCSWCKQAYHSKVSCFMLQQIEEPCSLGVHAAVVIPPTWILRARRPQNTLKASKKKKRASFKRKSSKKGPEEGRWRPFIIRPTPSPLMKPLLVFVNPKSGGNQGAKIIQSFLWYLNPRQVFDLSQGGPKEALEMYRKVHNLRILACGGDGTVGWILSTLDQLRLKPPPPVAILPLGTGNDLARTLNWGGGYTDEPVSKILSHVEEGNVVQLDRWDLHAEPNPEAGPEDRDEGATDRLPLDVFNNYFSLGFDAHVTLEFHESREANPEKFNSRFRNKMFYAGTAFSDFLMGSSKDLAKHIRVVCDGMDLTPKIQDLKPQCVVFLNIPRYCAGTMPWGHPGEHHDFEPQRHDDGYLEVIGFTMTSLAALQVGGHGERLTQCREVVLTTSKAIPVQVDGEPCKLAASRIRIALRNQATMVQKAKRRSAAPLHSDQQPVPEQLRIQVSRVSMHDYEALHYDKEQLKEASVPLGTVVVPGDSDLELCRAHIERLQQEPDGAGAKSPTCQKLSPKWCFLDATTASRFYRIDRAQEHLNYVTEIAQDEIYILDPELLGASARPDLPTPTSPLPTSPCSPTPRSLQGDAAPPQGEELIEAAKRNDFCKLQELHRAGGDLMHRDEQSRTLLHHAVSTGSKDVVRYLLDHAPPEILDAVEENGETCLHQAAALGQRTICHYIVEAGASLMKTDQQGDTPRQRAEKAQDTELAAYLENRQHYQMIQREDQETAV

Turning to `CC[C@@H]1CN(c2nc3nncn3c3c2ncn3CCN(C)C)[C@@H](C)CN1C(c1ccc(Cl)cc1)C1CC(F)(F)C1` (stereo partly drawn) [Example 66, 2-(4-((2S,5R)-4-((4-Chlorophenyl)(3,3-difluorocyclobutyl)methyl)-5-ethyl-2-methylpiperazin-1-yl)-1H-[1,2,4]triazolo[3,4-b]purin-1-yl)-N,N-dimethylethan-1-amine], the IC50 on DGKα and at DGKζ was at most 20 nM throughout.

As to `Cc1nc2c(N3C[C@@H](C)N(C(c4ccc(C(F)(F)F)c(F)c4)C(C)C)C[C@@H]3C)nc3nncn3c2n1C[C@@H]1CCCO1` (stereo partly drawn) [Example 83, 4-((2S,5R)-4-(1-(3-Fluoro-4-(trifluoromethyl)phenyl)-2-methylpropyl)-2,5-dimethylpiperazin-1-yl)-2-methyl-1-(((S)-tetrahydrofuran-2-yl)methyl)-1H-[1,2,4]triazolo[3,4-b]purine], the IC50 on DGKα and at DGKζ was at most 20 nM in each case.

As to `CC[C@@H]1CN(c2nc3nncn3c3c2nnn3C[C@@H]2CCCO2)[C@@H](C)CN1C(c1ccc(F)cc1)c1ccc(F)cc1` [Example 30, 4-((2S,5R)-4-(Bis(4-fluorophenyl)methyl)-5-ethyl-2-methylpiperazin-1-yl)-1-(((S)-tetrahydrofuran-2-yl)methyl)-1H-[1,2,3]triazolo[4,5-e][1,2,4]triazolo[4,3-a]pyrimidine], the IC50 at DGKα and at DGKζ was at most 20 nM throughout.

In the case of `C[C@@H]1CN(c2nc3nncn3c3ccoc23)[C@@H](C)CN1C(c1ccc(F)cc1)c1ccc(F)cc1` [Example 7, 5-((2S,5R)-4-(Bis(4-fluorophenyl)methyl)-2,5-dimethylpiperazin-1-yl)furo[2,3-e][1,2,4]triazolo[4,3-a]pyrimidine], the figures for the concentration for half-maximal inhibition (IC50) at DGKα and at DGKζ were at most 20 nM and over 2000 nM, respectively.

On to `Cc1nc2c(N3C[C@@H](C)N(C(c4ccc(Cl)cc4)c4ccc(Cl)cc4)C[C@@H]3C)nc3nncn3c2n1C[C@@H]1CCCO1` [Example 105, 4-((2S,5R)-4-(Bis(4-chlorophenyl)methyl)-2,5-dimethylpiperazin-1-yl)-2-methyl-1-(((S)-tetrahydrofuran-2-yl)methyl)-1H-[1,2,4]triazolo[3,4-b]purine], for which the IC50 at DGKα and at DGKζ was at most 20 nM each time.

In the case of `CC[C@H]1CN(C(c2ccc(F)cc2)c2ccc(F)cc2)[C@H](CC)CN1c1nc2nncn2c2c1ncn2CC1CC1` [Example 21, 4-((2S,5R)-4-(Bis(4-fluorophenyl)methyl)-2,5-diethylpiperazin-1-yl)-1-(cyclopropylmethyl)-1H-[1,2,4]triazolo[3,4-b]purine], the IC50 on DGKα and at DGKζ was at most 20 nM throughout.

Consider `C[C@H]1CN(C(c2ccc(F)cc2)c2ccc(F)cc2)[C@H](CC#N)CN1c1nc2nncn2c2scnc12` [Example 14, 2-((2R,5S)-1-(Bis(4-fluorophenyl)methyl)-5-methyl-4-(thiazolo[4,5-e][1,2,4]triazolo[4,3-a]pyrimidin-4-yl)piperazin-2-yl)acetonitrile], for which the IC50 at DGKα and at DGKζ was at most 20 nM in each case.

For `CC[C@@H]1CN(c2nc3nncn3c3c2nc(C)n3C[C@@H]2CCCO2)[C@@H](C)CN1[C@H](c1ccc(C(F)(F)F)cc1)C(C)C` [Example 128, 4-((2S,5R)-5-Ethyl-2-methyl-4-((S)-2-methyl-1-(4-(trifluoromethyl)phenyl)propyl)piperazin-1-yl)-2-methyl-1-(((S)-tetrahydrofuran-2-yl)methyl)-1H-[1,2,4]triazolo[3,4-b]purine], the IC50 on DGKα and on DGKζ was at most 20 nM in each case.

In the case of `Cc1nc2c(N3C[C@@H](C)N(C(c4ccc(C(F)(F)F)cc4)[C@H]4C[C@H](C(F)(F)F)C4)C[C@@H]3C)nc3nncn3c2n1C[C@@H]1CCCO1` (stereo partly drawn) [Example 115, 4-((2S,5R)-2,5-Dimethyl-4-(((trans)-3-(trifluoromethyl)cyclobutyl)(4-(trifluoromethyl)phenyl)methyl)piperazin-1-yl)-2-methyl-1-(((S)-tetrahydrofuran-2-yl)methyl)-1H-[1,2,4]triazolo[3,4-b]purine], the concentration for half-maximal inhibition (IC50) on DGKα and on DGKζ was at most 20 nM in each case.

Consider `Cc1nc2c(N3C[C@@H](C)N(C(c4cc(F)c(F)c(F)c4)C4CC(F)(F)C4)C[C@@H]3C)nc3nncn3c2n1C[C@@H]1CCCO1` (stereo partly drawn) [Example 52, 4-((2S,5R)-4-((3,3-Difluorocyclobutyl)(3,4,5-trifluorophenyl)methyl)-2,5-dimethylpiperazin-1-yl)-2-methyl-1-(((S)-tetrahydrofuran-2-yl)methyl)-1H-[1,2,4]triazolo[3,4-b]purine], for which the IC50 at DGKα and at DGKζ was at most 20 nM in each case.

In the case of `[2H]c1nc2c(N3C[C@@H](CC)N(C(c4ccc(F)cc4)c4ccc(F)cc4)C[C@@H]3CC)nc3nncn3c2n1CCN(C)C` [Example 36, 2-(4-((2S,5R)-4-(Bis(4-fluorophenyl)methyl)-2,5-diethylpiperazin-1-yl)-1H-[1,2,4]triazolo[3,4-b]purin-1-yl-2-d)-N,N-dimethylethan-1-amine], the IC50 on DGKα and at DGKζ was at most 20 nM throughout.

Regarding `C[C@@H]1CN(c2nc3nncn3c3c2ncn3CCN(C)C)[C@@H](C)CN1C(c1ccc(C(F)F)cc1)c1ccc(C(F)F)cc1` [Example 100, 2-(4-((2S,5R)-4-(Bis(4-(difluoromethyl)phenyl)methyl)-2,5-dimethylpiperazin-1-yl)-1H-[1,2,4]triazolo[3,4-b]purin-1-yl)-N,N-dimethylethan-1-amine], the IC50 at DGKα and at DGKζ was at most 20 nM throughout.

On to `C[C@@H]1CN(c2nc3nncn3c3c2ncn3CCN(C)C)[C@@H](C)CN1[C@@H](c1ccc(C(F)(F)F)cc1)c1ccc(C(F)(F)F)cn1` [Example 101, 2-(4-((2S,5R)-2,5-Dimethyl-4-((S)-(4-(trifluoromethyl)phenyl)(5-(trifluoromethyl)pyridin-2-yl)methyl)piperazin-1-yl)-1H-[1,2,4]triazolo[3,4-b]purin-1-yl)-N,N-dimethylethan-1-amine], for which the IC50 at DGKα and on DGKζ was at most 20 nM throughout.

For `Cc1nc2c(N3C[C@@H](C)N(C(c4ccc(F)c(Cl)c4F)C4CC(F)(F)C4)C[C@@H]3C)nc3nncn3c2n1C[C@@H]1CCCO1` (stereo partly drawn) [Example 57, 4-((2S,5R)-4-((3-Chloro-2,4-difluorophenyl)(3,3-difluorocyclobutyl)methyl)-2,5-dimethylpiperazin-1-yl)-2-methyl-1-(((S)-tetrahydrofuran-2-yl)methyl)-1H-[1,2,4]triazolo[3,4-b]purine], the IC50 at DGKα and on DGKζ was at most 20 nM throughout.

In the case of `C[C@@H]1CN(c2nc3nncn3c3c2ncn3C[C@@H]2CCCO2)[C@@H](C)CN1[C@@H](c1ccc(F)cc1)c1ccc(OC(F)(F)F)cn1` [Example 26, 4-((2S,5R)-4-((S)-(4-Fluorophenyl)(5-(trifluoromethoxy)pyridin-2-yl)methyl)-2,5-dimethylpiperazin-1-yl)-1-(((S)-tetrahydrofuran-2-yl)methyl)-1H-[1,2,4]triazolo[3,4-b]purine], the IC50 at DGKα and on DGKζ was at most 20 nM each time.

`Cc1nc2c(N3C[C@@H](C)N(C(c4ccc(C(F)(F)F)cc4)C4CC(F)(F)C4)C[C@@H]3C)nc3nncn3c2n1C[C@@H]1CCCO1` (single isomer, unassigned) [Example 43]: the IC50 on DGKα and on DGKζ was at most 20 nM in each case.

Regarding `Cc1nc2c(N3C[C@@H](C)N(C(c4ccc(F)c(C(F)(F)F)c4)C(C)C)C[C@@H]3C)nc3nncn3c2n1C[C@@H]1CCCO1` (stereo partly drawn) [Example 84, 4-((2S,5R)-4-(1-(4-Fluoro-3-(trifluoromethyl)phenyl)-2-methylpropyl)-2,5-dimethylpiperazin-1-yl)-2-methyl-1-(((S)-tetrahydrofuran-2-yl)methyl)-1H-[1,2,4]triazolo[3,4-b]purine], the half-inhibitory concentration (IC50) on DGKα and at DGKζ was at most 20 nM each time.

For the compound `Cc1nc2c(N3C[C@@H](C)N([C@@H](c4ccc(F)c(Cl)c4)C(C)C)C[C@@H]3C)nc3nncn3c2n1C[C@@H]1CCCO1` (single isomer, unassigned) [Example 87], the IC50 at DGKα and on DGKζ was at most 20 nM in each case.

In the case of `C[C@@H]1CN(c2nc3nncn3c3sc(C(F)F)nc23)[C@@H](C)CN1C(c1ccc(F)cc1)c1ccc(F)cc1` [Example 3, 4-((2S,5R)-4-(Bis(4-fluorophenyl)methyl)-2,5-dimethylpiperazin-1-yl)-2-(difluoromethyl)thiazolo[4,5-e][1,2,4]triazolo[4,3-a]pyrimidine], the IC50 (commonly the midpoint of a concentration-inhibition curve) was at most 20 nM at DGKα and 200 to 2000 nM on DGKζ.
